Measured values taken from ChEMBL document CHEMBL1135183, “Design and synthesis of C-8 linked pyrrolobenzodiazepine-naphthalimide hybrids as anti-tumour agents” (2002).

Assays:
Type in all cases: functional
[1] = test system: Panel melanoma (Carcinoma cell lines); assay: Concentration of compound causing 50% lethality in Melanoma cell lines was determined; conditions: Homo sapiens, read-out: Log LC50 (the source's name) (converted)
[2] = test system: leukaemia cell line; assay: Concentration of compound causing 50% lethality in Leukemia cell lines was determined; conditions: Homo sapiens, read-out: Log LC50 (the source's name) (converted)
[3] = test system: Panel CNS (Carcinoma cell lines); assay: Concentration of compound causing 50% lethality in CNS cell lines was determined; conditions: Homo sapiens, read-out: Log LC50 (the source's name) (converted)
[4] = test system: Panel colon (Carcinoma cell lines); assay: Concentration of compound causing 50% lethality in Colon cell lines was determined; conditions: Homo sapiens
[5] = test system: Panel prostate (Carcinoma cell lines); assay: Concentration of compound causing 50% lethality in Prostate cell lines was determined; conditions: Homo sapiens, read-out: Log LC50 (the source's name) (converted)
[6] = test system: Panel renal (Carcinoma cell lines); assay: Concentration of compound causing 50% lethality in Renal cell lines was determined; conditions: Homo sapiens
[7] = test system: NSCLC; assay: Concentration of compound causing 50% lethality in Non-small-cell lung cell lines was determined; conditions: Homo sapiens, read-out: Log LC50 (the source's name) (converted)
[8] = test system: Panel ovarian (Carcinoma cell lines); assay: Concentration of compound causing 50% lethality in Ovarian cell lines was determined; conditions: Homo sapiens, read-out: Log LC50 (the source's name) (converted)
[9] = test system: Panel breast (Carcinoma cell lines); assay: Concentration of compound causing 50% lethality in Breast cell lines was determined; conditions: Homo sapiens, read-out: Log LC50 (the source's name) (converted)

`COc1cc2c(cc1OCCCCCCCN1C(=O)c3cccc4cccc(c34)C1=O)N=C[C@@H]1CCCN1C2=O` was tested, and the CC50 [1] was 37.2 µM, the CC50 [2] was greater than 100 µM and the CC50 [3] was greater than 100 µM. It also gave an LC50 [4] of 38.9 µM, a CC50 [5] greater than 100 µM and an LC50 (concentration causing 50% cell lethality) [6] of 93.3 µM. The CC50 [7] was 45.7 µM, the CC50 [8] was 87.1 µM and the CC50 [9] was 43.7 µM.
In the case of `COc1cc2c(cc1OCCCN1C(=O)c3cccc4cccc(c34)C1=O)N=C[C@@H]1CCCN1C2=O`, the CC50 [1] is reported as 97.7 µM, the CC50 [2] is reported as 77.6 µM and the CC50 [3] is reported as greater than 100 µM. For the same compound, the LC50 [4] was 97.7 µM, the CC50 [5] was greater than 100 µM and the LC50 (concentration causing 50% cell lethality) [6] was 91.2 µM. It also gave a CC50 [7] of 89.1 µM, a CC50 [8] of 97.7 µM and a CC50 [9] greater than 100 µM.
`COc1cc2c(cc1OCCCCCCCCCCCCCN1C(=O)c3cccc4cccc(c34)C1=O)N=C[C@@H]1CCCN1C2=O` was tested, and the CC50 [1] was 81.3 µM, the CC50 [2] was 77.6 µM and the CC50 [3] was 77.6 µM. It also gave an LC50 [4] of 83.2 µM, a CC50 [5] of 93.3 µM and an LC50 (concentration causing 50% cell lethality) [6] of 95.5 µM. For the same compound, the CC50 [7] was greater than 100 µM, the CC50 [8] was 85.1 µM and the CC50 [9] was 95.5 µM.
`COc1cc2c(cc1OCCCCCCCCCCCCCCCCCN1C(=O)c3cccc4cccc(c34)C1=O)N=C[C@@H]1CCCN1C2=O` gave a CC50 [1] of 64.6 µM, a CC50 [2] of 61.7 µM and a CC50 [3] of 51.3 µM. The LC50 [4] was 75.9 µM, the CC50 [5] was 66.1 µM and the LC50 (concentration causing 50% cell lethality) [6] was 81.3 µM. The CC50 [7] was 83.2 µM, the CC50 [8] was 77.6 µM and the CC50 [9] was 85.1 µM.
For `COc1cc2c(cc1OCCCCCN1C(=O)c3cccc4cccc(c34)C1=O)N=C[C@@H]1CCCN1C2=O`, the CC50 [1] was 58.9 µM, the CC50 [2] was 72.4 µM and the CC50 [3] was 72.4 µM. The LC50 [4] was 45.7 µM, the CC50 [5] was 61.7 µM and the LC50 (concentration causing 50% cell lethality) [6] was 30.9 µM. The CC50 [7] was 69.2 µM, the CC50 [8] was 81.3 µM and the CC50 [9] was 60.3 µM.
